Measured values reported in PubChem BioAssay (NCI).
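Tested at 5 concentrations; 48 h exposure; 96-well plates; endpoints linearly interpolated, else capped at highest concentration. TGI is the concentration that stops growth completely.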

Columns and labels:
Experiment in all cases: inhibition of tumour cell growth, NCI panel, 48 h
LXFL 529 NSCLC = system: LXFL 529 NSCLC
OVCAR-3 ovarian = system: OVCAR-3 ovarian
DMS 273 small cell lung = system: DMS 273 small cell lung
IGROV1 ovarian = system: IGROV1 ovarian
EKVX NSCLC = system: EKVX NSCLC
HOP-92 NSCLC = system: HOP-92 NSCLC
COLO 205 colon = system: COLO 205 colon
SNB-19 CNS = system: SNB-19 CNS
786-0 renal = system: 786-0 renal
HT29 colon = system: HT29 colon
SF-539 CNS = system: SF-539 CNS
M19-MEL melanoma = system: M19-MEL melanoma
A498 renal = system: A498 renal
A549 NSCLC = system: A549 NSCLC
NCI-H23 lung = system: NCI-H23 lung
NCI-H522 lung = system: NCI-H522 lung
SK-MEL-28 melanoma = system: SK-MEL-28 melanoma
UO-31 renal = system: UO-31 renal
UACC-257 melanoma = system: UACC-257 melanoma
SNB-78 CNS = system: SNB-78 CNS
RPMI-8226 leukemia = system: RPMI-8226 leukemia
NCI-H460 lung = system: NCI-H460 lung
HOP-18 NSCLC = system: HOP-18 NSCLC
SK-MEL-5 melanoma = system: SK-MEL-5 melanoma
CAKI-1 renal = system: CAKI-1 renal
U251 CNS = system: U251 CNS
RXF 393 renal = system: RXF 393 renal
NCI-H226 lung = system: NCI-H226 lung
KM20L2 colon = system: KM20L2 colon
SR leukemia = system: SR leukemia
DLD-1 colon = system: DLD-1 colon
TK-10 renal = system: TK-10 renal
OVCAR-5 ovarian = system: OVCAR-5 ovarian
OVCAR-4 ovarian = system: OVCAR-4 ovarian
HCT-116 colon = system: HCT-116 colon
UACC-62 melanoma = system: UACC-62 melanoma
LOX IMVI melanoma = system: LOX IMVI melanoma
HOP-62 NSCLC = system: HOP-62 NSCLC
SN12C renal = system: SN12C renal
XF 498 CNS = system: XF 498 CNS
OVCAR-8 ovarian = system: OVCAR-8 ovarian
SNB-75 CNS = system: SNB-75 CNS
SW-620 colon = system: SW-620 colon
MOLT-4 leukemia = system: MOLT-4 leukemia
SF-295 CNS = system: SF-295 CNS
ACHN renal = system: ACHN renal
DMS 114 small cell lung = system: DMS 114 small cell lung
SK-OV-3 ovarian = system: SK-OV-3 ovarian
M14 melanoma = system: M14 melanoma
SF-268 CNS = system: SF-268 CNS
MALME-3M melanoma = system: MALME-3M melanoma
KM12 colon = system: KM12 colon
SK-MEL-2 melanoma = system: SK-MEL-2 melanoma
HL-60(TB) leukemia = system: HL-60(TB) leukemia
HCT-15 colon = system: HCT-15 colon
K-562 leukemia = system: K-562 leukemia
RXF-631 renal = system: RXF-631 renal
CCRF-CEM leukemia = system: CCRF-CEM leukemia
HCC-2998 colon = system: HCC-2998 colon

Measured: TGI

C=C1CC2CC(O)CC(C1)C2 (stereo not drawn)
not listed: HL-60(TB) leukemia | HCT-15 colon | K-562 leukemia | RXF-631 renal | CCRF-CEM leukemia | HCC-2998 colon
> 100 µM: all other assays above

O=C1C2C(C(=O)N1c1ccccc1)C1([N+](=O)[O-])C=C3c4ccccc4N(C(=O)c4ccccc4)C32C2C(=O)N(c3ccccc3)C(=O)C21 (stereo not drawn)
not listed: EKVX NSCLC | SF-539 CNS | RPMI-8226 leukemia | HOP-18 NSCLC | SK-MEL-5 melanoma | RXF 393 renal | NCI-H226 lung | KM20L2 colon | OVCAR-4 ovarian
> 100 µM: all other assays above
